According to US10947242B2, “[1,2,4]triazolo[1,5and#8208;A]pyrimidine compounds as PDE2 inhibitors” (Janssen Pharmaceutica NV, priority 2016, dated 2021):
Read-outs that look alike come from different tables or passages of the source.

Legend:
[1] = target: T1, Human recombinant PDE2A (hPDE2A) (Homo sapiens, UniProt O00408); experiment: In vitro assay PDE2A (SPA, 3H-cGMP hydrolysis); assay type: biochemical; conditions: for IC50: read-out: hPDE2A pIC50 (converted); for Emax: read-out: hPDE2A Emax
T1 construct: His tag (inferred from metal chelate purification); made in house; host or cells: Sf9 insect cells (baculovirus)
T1 sequence (O00408 whole entry): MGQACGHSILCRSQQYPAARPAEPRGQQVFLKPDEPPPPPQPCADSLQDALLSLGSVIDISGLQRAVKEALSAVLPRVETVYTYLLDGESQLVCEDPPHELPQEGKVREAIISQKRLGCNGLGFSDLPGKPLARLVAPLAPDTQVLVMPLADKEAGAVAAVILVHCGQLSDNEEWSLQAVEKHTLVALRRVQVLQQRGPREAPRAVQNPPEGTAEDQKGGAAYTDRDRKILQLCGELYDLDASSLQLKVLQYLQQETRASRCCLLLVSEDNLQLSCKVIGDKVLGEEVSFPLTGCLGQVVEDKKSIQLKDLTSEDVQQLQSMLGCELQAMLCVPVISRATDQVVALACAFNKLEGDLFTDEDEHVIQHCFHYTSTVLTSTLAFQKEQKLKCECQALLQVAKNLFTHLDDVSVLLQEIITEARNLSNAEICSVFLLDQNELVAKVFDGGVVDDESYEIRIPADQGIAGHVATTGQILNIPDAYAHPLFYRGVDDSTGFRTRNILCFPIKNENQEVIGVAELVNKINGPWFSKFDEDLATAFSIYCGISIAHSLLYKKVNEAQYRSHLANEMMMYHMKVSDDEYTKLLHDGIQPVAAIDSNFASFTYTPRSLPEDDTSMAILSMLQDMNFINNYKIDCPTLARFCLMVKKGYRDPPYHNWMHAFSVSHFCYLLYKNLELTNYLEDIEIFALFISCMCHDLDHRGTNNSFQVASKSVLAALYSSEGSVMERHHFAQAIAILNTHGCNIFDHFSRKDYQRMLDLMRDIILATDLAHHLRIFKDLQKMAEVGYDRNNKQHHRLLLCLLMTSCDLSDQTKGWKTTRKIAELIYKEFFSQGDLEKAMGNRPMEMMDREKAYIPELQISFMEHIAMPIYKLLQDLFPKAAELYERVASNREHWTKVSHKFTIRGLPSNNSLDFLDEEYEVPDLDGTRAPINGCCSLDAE

[2] = target: T2, Human recombinant PDE3A (hPDE3A) (Homo sapiens, UniProt Q14432); experiment: In vitro assay PDE3A (SPA, 3H-cAMP hydrolysis); assay type: biochemical;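 note: the method names PDE3A and the table heading PDE3B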
T2 construct: purchased Scottish Biomedical; host or cells: Sf9 insect cells
T2 sequence (Q14432 whole entry): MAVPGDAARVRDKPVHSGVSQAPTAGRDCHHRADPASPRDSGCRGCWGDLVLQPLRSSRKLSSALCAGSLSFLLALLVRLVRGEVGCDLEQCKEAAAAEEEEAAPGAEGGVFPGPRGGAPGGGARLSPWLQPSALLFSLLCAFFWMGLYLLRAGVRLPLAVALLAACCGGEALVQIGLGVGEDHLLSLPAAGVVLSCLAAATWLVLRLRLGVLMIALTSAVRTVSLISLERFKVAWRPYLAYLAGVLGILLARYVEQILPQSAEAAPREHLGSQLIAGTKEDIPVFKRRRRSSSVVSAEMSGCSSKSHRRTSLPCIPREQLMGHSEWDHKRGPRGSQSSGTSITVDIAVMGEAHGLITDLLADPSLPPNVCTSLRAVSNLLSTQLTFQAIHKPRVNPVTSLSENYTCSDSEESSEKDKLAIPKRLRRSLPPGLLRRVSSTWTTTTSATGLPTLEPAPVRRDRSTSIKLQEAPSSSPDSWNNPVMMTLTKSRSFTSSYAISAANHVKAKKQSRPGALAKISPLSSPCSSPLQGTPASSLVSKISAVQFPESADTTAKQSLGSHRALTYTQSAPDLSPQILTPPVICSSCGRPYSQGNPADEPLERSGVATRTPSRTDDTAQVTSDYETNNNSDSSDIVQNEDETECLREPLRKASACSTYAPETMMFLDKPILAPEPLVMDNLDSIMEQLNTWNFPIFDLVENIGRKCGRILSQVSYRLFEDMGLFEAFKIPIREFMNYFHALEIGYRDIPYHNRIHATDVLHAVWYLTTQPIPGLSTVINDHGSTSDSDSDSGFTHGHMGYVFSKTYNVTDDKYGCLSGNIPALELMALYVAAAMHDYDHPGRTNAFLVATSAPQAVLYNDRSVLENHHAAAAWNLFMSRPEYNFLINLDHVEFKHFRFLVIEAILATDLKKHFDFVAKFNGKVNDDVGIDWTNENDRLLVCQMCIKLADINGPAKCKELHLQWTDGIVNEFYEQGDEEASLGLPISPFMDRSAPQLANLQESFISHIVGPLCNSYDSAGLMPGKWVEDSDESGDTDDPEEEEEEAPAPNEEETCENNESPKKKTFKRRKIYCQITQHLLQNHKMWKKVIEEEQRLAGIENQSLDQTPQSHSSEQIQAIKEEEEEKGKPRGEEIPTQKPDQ
How it was run: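 Radiometric SPA measuring [3H]-cAMP hydrolysis (0.4 μM cAMP, 2.4 μCi/ml) over 60 min at room temperature, in Tris pH 7.8 buffer with MgCl2 and EGTA, 1% DMSO. Enzyme: recombinant human brain PDE3A expressed in Sf9 cells, used as partially purified lysate. Counts compared with enzyme-free blanks and vehicle controls.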

PDE2A = target: T3, PDE2A (Rattus norvegicus, UniProt Q01062); experiment: PDE2 occupancy by test compounds, ex-vivo autoradiography with [3H]B-17a; assay type: in vivo, Male Wistar rats; conditions: sc, 10 mg/kg, route SC (subcutaneous), percentage receptor occupancy, ex-vivo autoradiography, striatum
T3 construct: Twenty μm-thick striatal sections were cut; from tissue; host or cells: rat brain, striatal sections
T3 sequence (Q01062 1-928): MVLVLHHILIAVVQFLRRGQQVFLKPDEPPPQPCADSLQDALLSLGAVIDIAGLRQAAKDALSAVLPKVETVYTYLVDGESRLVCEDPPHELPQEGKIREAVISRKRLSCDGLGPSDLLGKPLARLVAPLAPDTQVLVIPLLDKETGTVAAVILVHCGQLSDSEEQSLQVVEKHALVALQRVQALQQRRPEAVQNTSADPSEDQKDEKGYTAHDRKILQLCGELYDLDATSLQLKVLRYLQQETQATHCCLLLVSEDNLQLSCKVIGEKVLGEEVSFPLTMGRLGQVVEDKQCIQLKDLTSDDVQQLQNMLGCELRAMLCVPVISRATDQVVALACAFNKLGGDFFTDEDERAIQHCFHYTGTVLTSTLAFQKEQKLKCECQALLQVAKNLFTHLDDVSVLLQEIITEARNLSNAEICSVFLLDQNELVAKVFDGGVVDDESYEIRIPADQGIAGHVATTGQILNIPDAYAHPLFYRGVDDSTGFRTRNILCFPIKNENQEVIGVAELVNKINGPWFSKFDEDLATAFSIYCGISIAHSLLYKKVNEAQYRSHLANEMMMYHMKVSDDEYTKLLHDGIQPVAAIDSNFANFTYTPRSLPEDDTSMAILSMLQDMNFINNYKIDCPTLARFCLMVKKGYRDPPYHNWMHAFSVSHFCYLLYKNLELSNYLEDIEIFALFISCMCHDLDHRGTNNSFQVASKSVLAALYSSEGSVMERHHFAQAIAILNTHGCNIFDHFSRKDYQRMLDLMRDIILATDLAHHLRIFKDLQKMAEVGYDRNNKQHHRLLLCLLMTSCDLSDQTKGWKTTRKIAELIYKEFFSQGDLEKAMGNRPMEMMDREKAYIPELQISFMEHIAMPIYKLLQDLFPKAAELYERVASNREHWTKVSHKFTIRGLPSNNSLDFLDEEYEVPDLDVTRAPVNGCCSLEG

[3] = target: T4, Human recombinant PDE10A (hPDE10A) (Homo sapiens, UniProt Q9Y233); experiment: In vitro assay PDE10A, human clone (SPA, 3H-cAMP hydrolysis); assay type: biochemical; conditions: human clone (h), default
T4 construct: His tag (inferred from metal chelate purification); made in house; host or cells: Sf9 insect cells (baculovirus)
T4 sequence (Q9Y233 267-1055): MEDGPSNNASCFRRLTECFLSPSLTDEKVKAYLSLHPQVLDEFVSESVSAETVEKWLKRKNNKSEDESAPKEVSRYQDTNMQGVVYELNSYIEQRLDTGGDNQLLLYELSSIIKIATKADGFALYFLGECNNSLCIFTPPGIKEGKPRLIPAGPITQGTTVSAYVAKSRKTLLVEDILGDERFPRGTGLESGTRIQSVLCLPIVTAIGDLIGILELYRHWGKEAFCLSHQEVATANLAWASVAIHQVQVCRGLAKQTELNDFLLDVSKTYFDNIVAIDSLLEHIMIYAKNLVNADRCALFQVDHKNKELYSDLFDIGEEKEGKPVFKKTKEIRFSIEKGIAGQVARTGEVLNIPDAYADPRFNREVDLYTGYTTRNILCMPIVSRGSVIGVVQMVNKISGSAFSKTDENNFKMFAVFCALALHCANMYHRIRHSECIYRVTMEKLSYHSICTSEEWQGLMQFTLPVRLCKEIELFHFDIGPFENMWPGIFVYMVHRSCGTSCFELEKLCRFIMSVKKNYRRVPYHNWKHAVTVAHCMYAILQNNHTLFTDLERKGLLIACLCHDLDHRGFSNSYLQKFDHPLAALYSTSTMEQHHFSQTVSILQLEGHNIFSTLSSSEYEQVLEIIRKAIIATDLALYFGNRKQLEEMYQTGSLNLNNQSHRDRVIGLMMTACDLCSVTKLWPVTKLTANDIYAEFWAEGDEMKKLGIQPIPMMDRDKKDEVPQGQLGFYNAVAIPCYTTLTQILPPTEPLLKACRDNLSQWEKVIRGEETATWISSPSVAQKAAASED
How it was run: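 Hydrolysis of 3H-cAMP (60 nM cAMP, 0.008 μCi tracer) proceeded for 60 min at room temperature, with the product detected by SPA bead scintillation counting. The enzyme was hPDE10A from baculovirus-infected Sf9 cells in Tris pH 7.8 buffer with MgCl2 and EGTA, and compounds were at 1% DMSO final. Blanks lacked enzyme.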

C[C@@H]1CCN(C(=O)c2ccc3c(ccn3CCF)c2)C[C@H]1c1cc(C(F)F)nc2ncnn12 [Compound 89] was tested. Which IC50 ([1]; human recombinant PDE2A, 10 μM cGMP substrate) did it give?
Its IC50 is 0.229 nM.

What about the Emax ([1]; human recombinant PDE2A) of the same molecule?
The Emax was 104%.

What about the Emax [1] of the same molecule?
The Emax was 104%.

What about the IC50 [1] of the same molecule?
Its IC50 is 0.229 nM.

And the IC50 ([2]; hPDE3B pIC50, read-out: pIC50 (converted))?
The IC50 was 145 nM.

And the Emax ([2]; read-out: hPDE3B Emax, read-out: Emax)?
The Emax was 96%.

What about the receptor occupancy at 10 mg/kg (PDE2A) of the same molecule?
The receptor occupancy at 10 mg/kg was 88%.

What about the Emax ([3]; read-out: hPDE10A2 Emax) of the same molecule?
Its Emax is 101%.

What about the IC50 ([3]; read-out: hPDE10A2 pIC50 (converted)) of the same molecule?
The IC50 was 20.9 nM.
